Experimental data published in ChEMBL document CHEMBL1201862, “PubChem BioAssay data set” (2004).
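Cultured in 96-well plates, cells were exposed to test compound for 48 hours across five concentrations. The concentration for 50% growth inhibition is given as GI50.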 Active and inactive are the calls of the source. Rule as the data show it: active = GI50 up to about 1.1 µM and inactive = higher.

How the values were obtained:
Assay in all cases: NCI tumour cell line growth inhibition, 48 h
RXF 393 = tested on: RXF 393
SNB-75 = tested on: SNB-75
ACHN = tested on: ACHN
NCI-H226 = tested on: NCI-H226
HT-29 = tested on: HT-29
SF-268 = tested on: SF-268
M14 = tested on: M14
SF-295 = tested on: SF-295
SW-620 = tested on: SW-620
A549 = tested on: A549
TK-10 = tested on: TK-10
K562 = tested on: K562
HCT-116 = tested on: HCT-116
CCRF-CEM = tested on: CCRF-CEM
HOP-62 = tested on: HOP-62
COLO 205 = tested on: COLO 205
LOX IMVI = tested on: LOX IMVI
RPMI-8226 = tested on: RPMI-8226

Measured: GI50

CC(=O)C1CCN(c2ccccc2)C1 (centres undefined)
inactive: RXF 393 > 100 µM | SNB-75 > 100 µM | ACHN > 100 µM | NCI-H226 > 100 µM | HT-29 > 100 µM | SF-268 > 100 µM | M14 > 100 µM | SF-295 > 100 µM | SW-620 > 100 µM | A549 > 100 µM | TK-10 > 100 µM | K562 > 100 µM | HCT-116 > 100 µM | CCRF-CEM > 100 µM | HOP-62 > 100 µM

O=C1CSc2cc([N+](=O)[O-])ccc2N1
inactive: RXF 393 > 100 µM | SNB-75 22.1 µM | ACHN > 100 µM | NCI-H226 > 100 µM | HT-29 > 100 µM | SF-268 > 100 µM | M14 > 100 µM | SF-295 > 100 µM | SW-620 > 100 µM | A549 > 100 µM | TK-10 > 100 µM | K562 > 100 µM | HCT-116 > 100 µM | COLO 205 > 100 µM | CCRF-CEM > 100 µM | HOP-62 > 100 µM | LOX IMVI > 100 µM

C[C@@H](NS(=O)(=O)c1ccc(NC(=O)c2ccccc2)cc1)C(=O)O
inactive: RXF 393 > 100 µM | SNB-75 > 100 µM | ACHN > 100 µM | HT-29 > 100 µM | SF-268 > 100 µM | M14 > 100 µM | SF-295 > 100 µM | SW-620 > 100 µM | A549 > 100 µM | TK-10 > 100 µM | K562 > 100 µM | RPMI-8226 > 100 µM | COLO 205 > 100 µM | CCRF-CEM > 100 µM | LOX IMVI > 100 µM

CC([C@H]1CCC2C3CCC4CC5(CC[C@]4(C)C3CC[C@@]21C)c1ccccc1C(=O)N5C)N(C)C (some centres undefined)
inactive: RXF 393 33 µM | SNB-75 3.45 µM | ACHN 44.9 µM | HT-29 6.18 µM | SF-268 > 100 µM | M14 13.9 µM | SF-295 18.7 µM | SW-620 40.6 µM | A549 78.5 µM | TK-10 26.1 µM | K562 15.7 µM | HCT-116 13.3 µM | RPMI-8226 20.7 µM | COLO 205 33 µM | CCRF-CEM 44.4 µM | HOP-62 31.3 µM | LOX IMVI 1.65 µM

COC(=O)C1CCC2(C)[C@H](CCC3O[C@]32C)[C@@]1(C)CC(=O)c1ccoc1 (some centres undefined)
inactive: RXF 393 > 100 µM | ACHN 34.4 µM | NCI-H226 > 100 µM | SF-268 48.4 µM | M14 > 100 µM | SF-295 > 100 µM | SW-620 > 100 µM | A549 > 100 µM | TK-10 36.9 µM | K562 46.1 µM | HCT-116 65.6 µM | RPMI-8226 52.7 µM | COLO 205 > 100 µM | CCRF-CEM 31.1 µM | HOP-62 > 100 µM | LOX IMVI > 100 µM

N#CC(C(=O)CCC(=O)Nc1ccc(Cl)cc1)c1ccc(Cl)cc1 (centres undefined)
inactive: ACHN 77.1 µM | NCI-H226 > 100 µM | HT-29 > 100 µM | SF-268 93.3 µM | M14 52 µM | SF-295 > 100 µM | SW-620 > 100 µM | A549 > 100 µM | TK-10 > 100 µM | K562 18.9 µM | HCT-116 65.9 µM | RPMI-8226 > 100 µM | COLO 205 > 100 µM | CCRF-CEM > 100 µM | HOP-62 > 100 µM | LOX IMVI 78.5 µM

C[C@H](C(=O)O)C(=O)NC(=O)N(Cc1ccccc1)N=O
inactive: SNB-75 98.4 µM | ACHN > 100 µM | HT-29 > 100 µM | SF-268 > 100 µM | M14 > 100 µM | SF-295 > 100 µM | SW-620 > 100 µM | A549 > 100 µM | TK-10 > 100 µM | K562 88.3 µM | HCT-116 > 100 µM | RPMI-8226 > 100 µM | COLO 205 > 100 µM | CCRF-CEM 67.1 µM | HOP-62 > 100 µM | LOX IMVI > 100 µM

CCN(CC)CC(=O)NC1c2ccccc2Oc2c(C)cccc21 (centres undefined)
inactive: RXF 393 38.7 µM | SNB-75 49.5 µM | ACHN 32.9 µM | NCI-H226 > 100 µM | HT-29 > 100 µM | SF-268 > 100 µM | M14 > 100 µM | SW-620 > 100 µM | A549 > 100 µM | TK-10 > 100 µM | K562 53.1 µM | HCT-116 95.5 µM | RPMI-8226 78.7 µM | COLO 205 > 100 µM | CCRF-CEM > 100 µM | HOP-62 > 100 µM | LOX IMVI > 100 µM
